# Experiments:
# PPP2R1A [1] = molecular target: T1, PPP2R1A (Homo sapiens, UniProt P30153); test: gel-based ABPP, competition with IAyne labeling of pure protein; type: binding
# CLIC4 = CLIC4 (Homo sapiens, UniProt Q9Y696); test: in situ competitive isoTOP-ABPP in […]MFP cells, light to heavy ratio […]; type: cell-based
# ACAT1 = molecular target: T2, ACAT1 (Homo sapiens, UniProt P24752); test: as above; type: cell-based
# T2 sequence (P24752 34-427): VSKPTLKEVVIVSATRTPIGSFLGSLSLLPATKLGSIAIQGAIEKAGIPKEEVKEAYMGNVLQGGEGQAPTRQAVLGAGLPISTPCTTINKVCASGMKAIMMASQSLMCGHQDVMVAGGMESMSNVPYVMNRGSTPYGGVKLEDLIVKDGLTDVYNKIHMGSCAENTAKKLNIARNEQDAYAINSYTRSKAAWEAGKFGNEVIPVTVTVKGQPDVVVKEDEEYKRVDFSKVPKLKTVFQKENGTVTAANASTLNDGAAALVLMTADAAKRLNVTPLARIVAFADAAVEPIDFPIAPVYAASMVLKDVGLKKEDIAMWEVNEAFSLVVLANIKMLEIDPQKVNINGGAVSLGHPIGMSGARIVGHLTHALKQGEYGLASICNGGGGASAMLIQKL
# TXNDC17 = molecular target: T3, TXNDC17 (Homo sapiens, UniProt Q9BRA2); test: as above; type: cell-based
# T3 sequence (Q9BRA2 2-123): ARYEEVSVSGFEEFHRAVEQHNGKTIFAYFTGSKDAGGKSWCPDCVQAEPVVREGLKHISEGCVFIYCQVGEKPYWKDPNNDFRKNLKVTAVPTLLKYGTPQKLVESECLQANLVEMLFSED
# PPP2R1A [2] = molecular target: T1, PPP2R1A; test: gel-based ABPP, competition with IAyne labeling of pure protein; type: binding; remark: listed apart in the source
# SCP2 = molecular target: T4, SCP2 (Homo sapiens, UniProt P22307); test: in situ competitive isoTOP-ABPP in […]MFP cells, light to heavy ratio […]; type: cell-based
# T4 sequence (P22307 1-547): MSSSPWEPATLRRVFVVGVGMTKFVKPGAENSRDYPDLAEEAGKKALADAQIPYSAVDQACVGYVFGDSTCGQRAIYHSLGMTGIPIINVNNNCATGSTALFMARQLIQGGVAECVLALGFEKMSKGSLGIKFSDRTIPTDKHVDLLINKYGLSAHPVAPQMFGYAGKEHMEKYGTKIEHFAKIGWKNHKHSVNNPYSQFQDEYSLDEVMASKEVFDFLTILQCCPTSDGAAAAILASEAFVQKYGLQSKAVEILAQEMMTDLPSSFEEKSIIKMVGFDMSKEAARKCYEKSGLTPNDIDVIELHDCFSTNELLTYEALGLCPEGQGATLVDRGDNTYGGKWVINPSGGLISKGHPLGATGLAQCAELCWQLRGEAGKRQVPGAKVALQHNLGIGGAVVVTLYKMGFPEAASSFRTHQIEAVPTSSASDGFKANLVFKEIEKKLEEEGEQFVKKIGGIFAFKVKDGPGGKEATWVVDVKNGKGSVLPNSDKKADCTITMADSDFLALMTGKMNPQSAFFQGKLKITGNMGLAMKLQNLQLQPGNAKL
# PPP2R1A [3] = molecular target: T1, PPP2R1A; test: gel-based ABPP, competition with IAyne labeling; type: binding
# T1 sequence (P30153 2-589): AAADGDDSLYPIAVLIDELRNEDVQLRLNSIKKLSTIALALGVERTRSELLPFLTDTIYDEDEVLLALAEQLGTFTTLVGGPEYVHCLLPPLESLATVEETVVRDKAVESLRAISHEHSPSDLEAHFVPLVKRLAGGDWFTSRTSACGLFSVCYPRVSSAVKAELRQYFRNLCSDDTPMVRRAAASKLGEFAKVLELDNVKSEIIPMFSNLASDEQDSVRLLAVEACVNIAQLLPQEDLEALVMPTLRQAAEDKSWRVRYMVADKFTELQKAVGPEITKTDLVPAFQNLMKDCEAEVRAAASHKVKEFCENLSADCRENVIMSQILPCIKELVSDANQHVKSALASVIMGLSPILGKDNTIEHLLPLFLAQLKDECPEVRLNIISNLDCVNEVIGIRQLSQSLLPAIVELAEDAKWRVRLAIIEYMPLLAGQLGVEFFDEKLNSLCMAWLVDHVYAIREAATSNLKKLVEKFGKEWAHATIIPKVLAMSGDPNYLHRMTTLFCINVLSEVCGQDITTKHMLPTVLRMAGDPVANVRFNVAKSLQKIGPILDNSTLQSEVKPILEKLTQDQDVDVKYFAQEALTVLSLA
# CLIC4, sequence (Q9Y696 2-253): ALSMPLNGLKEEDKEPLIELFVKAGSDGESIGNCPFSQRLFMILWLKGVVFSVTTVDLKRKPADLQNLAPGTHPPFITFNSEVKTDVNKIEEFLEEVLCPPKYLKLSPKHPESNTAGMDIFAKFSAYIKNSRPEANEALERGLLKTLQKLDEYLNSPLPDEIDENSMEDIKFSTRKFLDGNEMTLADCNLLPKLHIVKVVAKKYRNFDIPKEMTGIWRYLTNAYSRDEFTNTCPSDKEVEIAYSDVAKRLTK
molecule,measurement,setting,value
O=C(CCl)N(Cc1ccccc1)c1ccc2c(c1)OCCO2 [JNS 1-40],IC50,PPP2R1A [1],0.63 µM
DKM 2-90,"in situ competitive isoTOP-ABPP in 231MFP cells, light to heavy ratio >5",CLIC4,> 5 light to heavy ratio
same,"in situ competitive isoTOP-ABPP in 231MFP cells, light to heavy ratio >5",ACAT1,> 5 light to heavy ratio
same,"in situ competitive isoTOP-ABPP in 231MFP cells, light to heavy ratio >5",TXNDC17,> 5 light to heavy ratio
same,IC50,PPP2R1A [2],10 µM
same,"in situ competitive isoTOP-ABPP in 231MFP cells, light to heavy ratio >5",SCP2,> 5 light to heavy ratio
O=C(CCl)Nc1ccc2c(c1)CCCC2 [JNS 1-37],IC50,PPP2R1A [3],300 µM

# Reference: publication PMC5693770 (Cell chemical biology, 2017)
